Series [1] in a line: Stability in human plasma. The settings on record: 37° C., up to 60 min. It counts as in vitro ADME. How it is done:
The stability of selected compounds in human plasma was evaluated according to the following protocol. Compounds and positive control samples were dissolved in 100% DMSO at 3 mM. To investigate the stability of the test compounds in plasma, samples were made by diluting test compounds into plasma from the stock solutions to obtain a test compound concentration of 3 μM (0.1% DMSO). Before addition of a test compound, 990 μl of plasma were preincubated at 37° C. for 5 min in eppendorf. After addition of a test compound, 70 μl for each time point were transferred to a 96-deepwell plate, previously warmed at 37° C. in a DUBNOFF water bath. Each compound was tested at five time points, in duplicate (10, 20, 30, 40 and 60 min). At each time point, an aliquot of 50 μl was taken and transferred to a new 96-deepwell plate, and the reaction was stopped with 200 μl of 100% acetonitrile containing 0.1% formic acid and the appropriate internal standard. Then samples were centrifuged at 1100×g for 30 min at +4° C. and supernatants were transferred to a new 96-deepwell plate. Samples were evaporated under N2 and reconstituted in H2O/ACN 0.1% formic Acid (98:2). Analysis was performed without a calibration curve (Acquity UPLC-Waters; SciexAPI4000). Time 0 was obtained by adding acetonitrile before addition of the test compound.
(§1) Stability was determined based on analysis of disappearance of the compounds as a function of incubation time. Quantification of test compounds was measured as a peak area relative to an internal standard. The elimination constant k and half-life (t1/2) were determined as described above in Example 7.

A further series deals with PANK2−/− IMR32 cells. The experiment in a line: Coenzyme A assay in PANK2 silenced cells (LC-MS quantification of free CoA). It counts as cell-based, human. The conditions noted are these: Homo sapiens, IMR-32; compound concentration 50 uM; fold increase in CoA levels relative to controls; treated twice, 24 h + 24 h.
Series [2] can be described thus: Stability of compounds in human hepatocytes. It is filed as in vitro ADME. The settings on record: cryopreserved human hepatocytes in suspension, 37° C., 0-240 min. On the procedure: (§2) Stability in hepatocytes for select compounds disclosed in the application was evaluated in two species (mouse and human) according to the following procedure. Compounds and positive control samples were dissolved in 100% DMSO at 5 mM. Cryopreserved hepatocytes were thawed and resuspended in Hepatocyte Basal Medium (HBM-Lonza CC-3199) supplemented with CC-4182 (complete hepatocyte culture medium). Test compounds were diluted into cell suspension (1 million cells/ml) from the stock solutions to have a test compound concentration of 5 μM (0.1% DMSO). Incubation was performed in 24-well plates, at 37° C. in a DUBNOFF water bath, under low shaking. Each compound was tested at 6 time points, in duplicates (0, 15, 30, 60, 120, and 240 min). At each time point, an aliquot of 120 μl was taken and transferred to a 96-well deep plate. The reaction was stopped with the addition of one volume of 100% acetonitrile plus 0.1% formic acid and the appropriate internal standard. Samples then were centrifuged at 1100×g for 30 min at +4° C. and supernatants were transferred to a new 96-deepwell plate. Samples were evaporated under N2 and reconstituted in H2O/ACN 0.1% formic Acid (98:2). Analysis was performed without a calibration curve (Acquity UPLC-Waters; Sciex API4000). Time 0 was obtained adding acetonitrile before addition of the test compound. Stability was determined based on analysis of disappearance of the compounds as a function of incubation time. Quantification of test compounds was measured as a peak area relative to an internal standard. The elimination constant, k, is calculated by plotting mean disappearance values on a semi-logarithmic scale and fitting with a best fit linear regression. The half-life (t1/2) expressed in hours was derived using Equation 1:
(§3) t1/2=ln 2/(−k). Equation 1: […]

A short description of series [3]: Stability of compounds in mouse hepatocytes. It counts as in vitro ADME. The conditions noted are these: cryopreserved mouse hepatocytes in suspension, 37° C., 0-240 min. On the procedure:
as §2, §3

Series [4] is described as follows: Stability in human whole blood. It is filed as in vitro ADME. The settings on record: 37° C., up to 60 min. On the procedure:
The stability of selected compounds in human whole blood was evaluated according to the following protocol. Compounds and positive control samples were dissolved in 100% DMSO at 3 mM (stock solution). To investigate the stability of the test compounds in whole blood, a 200 μM working solution (WS) in water has been prepared by adding 66.66 μl of each 3 mM stock solution to 933.34 μl of water (6.66% DMSO content). After pre-incubation of the whole blood at 37° C. for 5 min in an eppendorf, 10.5 μl of each working solution were spiked into 689.5 μl of heated blood. The obtained 3 μM solution in blood (0.1% DMSO content) was quickly stirred and 100 μl for each time point were transferred to an eppendorf. Each compound was tested in duplicate at five time points (10, 20, 30, 40 and 60 min). At each time point, the reaction was stopped by quenching the spiked blood (100 μl) with 400 μl of 100% acetonitrile containing 0.1% formic acid. Then samples were centrifuged at 15600 rpm for 15 min at +4° C. and 200 μl of supernatant were transferred to a 96-deepwell plate. Samples were evaporated under N2 and reconstituted in H2O/ACN 0.1% formic Acid (98/2 v/v) containing the appropriate internal standard. Analysis was performed without a calibration curve by using an Acquity-UPLC (Waters) coupled to a triple quadrupole mass spectrometer (SciexAPI4000). Time point 0 was obtained by adding 3 μL of each 200 μM working solution to 997 μL of the supernatant obtaining after centrifugation (15600 rpm for 15 min at +4° C.) of the blank matrix quenched with acetonitrile containing 0.1% formic acid.
as §1

Where [5] appears, read: Diastereoisomer A (upfield shift in 31P NMR), read-out: t1/2 (h) Human Plasma Diastereoisomer A (converted).
Setting [6] is: Diastereoisomer A (upfield shift in 31P NMR), read-out: t1/2 (h) Human Hepatocytes Diastereoisomer A (converted).
The mark [7] stands for this setting: Diastereoisomer A (upfield shift in 31P NMR), read-out: t1/2 (h) Mouse Hepatocytes Diastereoisomer A (converted).
Where [8] appears, read: Diastereoisomer A (upfield shift in 31P NMR), read-out: t1/2 (h) Human Whole Blood Diastereoisomer A (converted).
Setting [9] is: Diastereoisomer B, read-out: t1/2 (h) Human Whole Blood Diastereoisomer B (converted).

A value given as a limit tells only on which side of the number the result lay.

For orientation: fold induction means the ratio of treated to control signal. `CC(=O)SCCNC(=O)CCNC(=O)[C@@H]1OP(=O)(N[C@@H](C)C(=O)OCCc2ccccc2)OCC1(C)C` (stereo partly drawn) [R1001, phenethyl ((4R)-4-((3-((2-(acetylthio)ethyl)amino)-3-oxopropyl)carbamoyl)-5,5-dimethyl-2-oxido-1,3,2-dioxaphosphinan-2-yl)-L-alaninate]: the half-life at 3 μM was over 1 h in series [1] (setting [5]) and 0.36 h in series [1] (Diastereoisomer B, read-out: t1/2 (h) Human Plasma Diastereoisomer B (converted)). The fold induction at 50 µM in the series with PANK2−/− IMR32 cells was 3.5.

For the compound `CC(=O)SCCNC(=O)CCNC(=O)[C@@H]1O[P@@](=O)(OCOC(=O)C(C)(C)C)OCC1(C)C` [R1002, (((2S,4R)-4-((3-((2-(acetylthio)ethyl)amino)-3-oxopropyl)carbamoyl)-5,5-dimethyl-2-oxido-1,3,2-dioxaphosphinan-2-yl)oxy)methyl pivalate], the half-life at 5 μM in series [2] (setting [6]) and in series [3] (setting [7]) was under 0.25 h in each case. Besides, in series [1] (setting [5]), the half-life at 3 μM was 0.72 h.

Regarding `CC(=O)SCCNC(=O)CCNC(=O)[C@@H]1OP(=O)(OCOC(=O)NCCOC(=O)C(C)(C)C)OCC1(C)C` (stereo partly drawn) [R1008, 2-((((((4R)-4-((3-((2-(acetylthio)ethyl)amino)-3-oxopropyl)carbamoyl)-5,5-dimethyl-2-oxido-1,3,2-dioxaphosphinan-2-yl)oxy)methoxy)carbonyl)amino)ethyl pivalate], the half-life at 5 μM in series [2] (setting [6]) was 0.29 h; in series [2] (Diastereoisomer B, read-out: t1/2 (h) Human Hepatocytes Diastereoisomer B (converted)), under 0.25 h; in series [3] (setting [7]), under 0.25 h; in series [3] (Diastereoisomer B, read-out: t1/2 (h) Mouse Hepatocytes Diastereoisomer B), under 0.25 h. Besides, the half-life at 3 μM in series [4] (setting [8]) was 0.5 h; in series [4] (setting [9]), 0.23 h. In addition, the fold induction at 50 µM with PANK2−/− IMR32 cells was 41.2.

As to `CC(=O)SCCNC(=O)CCNC(=O)[C@@H]1OP(=O)(OCOC(=O)NCCSC(=O)C(C)(C)C)OCC1(C)C` (stereo partly drawn) [R1023, S-(2-((((((4R)-4-((3-((2-(acetylthio)ethyl)amino)-3-oxopropyl)carbamoyl)-5,5-dimethyl-2-oxido-1,3,2-dioxaphosphinan-2-yl)oxy)methoxy)carbonyl)amino)ethyl) 2,2-dimethylpropanethioate], the half-life at 3 μM in series [4] (setting [8]) is 0.31 h; in series [4] (setting [9]), 0.17 h. For the same compound, in the series with PANK2−/− IMR32 cells, the fold induction at 50 µM was 17.

Regarding `CC(=O)SCCNC(=O)CCNC(=O)[C@@H]1O[P@](=O)(OCOC(=O)NCCOC(=O)C(C)(C)C)OCC1(C)C` [R1031, 2-((((((2R,4R)-4-((3-((2-(acetylthio)ethyl)amino)-3-oxopropyl)carbamoyl)-5,5-dimethyl-2-oxido-1,3,2-dioxaphosphinan-2-yl)oxy)methoxy)carbonyl)amino)ethyl pivalate], the half-life at 3 μM is 0.41 h in series [4] (setting [8]) and 0.25 h in series [4] (setting [9]). In the series on PANK2−/− IMR32 cells, the fold induction at 50 µM was found to be 23.2.
